This passage reports Ki results from patent US20160185797A1, “ALKYNYL ALCOHOLS AND METHODS OF USE” (Genentech, Inc., priority 2013, published 2016).

The target in this assay is T1, nuclear factor-kappa B (NF-kB)-inducing kinase (NIK) (Homo sapiens, UniProt Q99558).
T1 construct: made in house; host or cells: baculovirus-infected insect cells
The assay can be described thus: NIK enzyme inhibition assay (Transcreener ADP fluorescence polarization, NIK ADP-FP). The class given is biochemical. (In general: Fluorescence polarisation rises when a labelled molecule tumbles more slowly, as on binding a larger partner.)

Bounds are passed on as bounds.

T1 sequence (Q99558 whole entry): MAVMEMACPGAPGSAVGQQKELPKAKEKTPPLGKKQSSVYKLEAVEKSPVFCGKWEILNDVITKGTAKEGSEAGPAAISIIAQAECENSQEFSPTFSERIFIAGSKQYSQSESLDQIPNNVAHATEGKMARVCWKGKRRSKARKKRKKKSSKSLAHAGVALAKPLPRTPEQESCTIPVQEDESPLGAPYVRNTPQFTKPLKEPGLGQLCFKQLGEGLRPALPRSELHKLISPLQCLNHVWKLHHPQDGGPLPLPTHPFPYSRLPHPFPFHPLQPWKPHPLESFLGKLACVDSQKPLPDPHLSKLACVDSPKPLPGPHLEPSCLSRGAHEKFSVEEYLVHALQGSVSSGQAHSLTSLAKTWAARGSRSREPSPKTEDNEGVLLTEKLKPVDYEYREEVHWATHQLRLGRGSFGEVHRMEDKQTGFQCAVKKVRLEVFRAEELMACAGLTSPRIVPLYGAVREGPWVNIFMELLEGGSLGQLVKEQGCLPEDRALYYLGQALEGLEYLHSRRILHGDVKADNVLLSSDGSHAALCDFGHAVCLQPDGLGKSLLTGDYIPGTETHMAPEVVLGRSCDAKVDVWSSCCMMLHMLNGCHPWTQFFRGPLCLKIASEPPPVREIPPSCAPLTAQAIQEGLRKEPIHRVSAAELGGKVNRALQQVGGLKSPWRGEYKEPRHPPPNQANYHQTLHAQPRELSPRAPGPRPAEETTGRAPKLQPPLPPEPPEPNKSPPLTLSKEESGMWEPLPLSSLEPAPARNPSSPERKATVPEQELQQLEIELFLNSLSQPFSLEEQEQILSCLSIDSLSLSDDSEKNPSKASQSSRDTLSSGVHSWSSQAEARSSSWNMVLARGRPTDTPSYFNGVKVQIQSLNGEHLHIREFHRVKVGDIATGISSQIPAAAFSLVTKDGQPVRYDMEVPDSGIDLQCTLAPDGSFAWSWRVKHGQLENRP

For orientation: Ki means a dissociation constant, usually derived from enzyme kinetics or from competition with a known ligand. The low end stands for tighter binding, the high end for weaker binding. For `CN1CC[C@@](O)(C#Cc2cccc(-c3nc(N[C@H]4CCOC4)cc(C(N)=O)n3)c2)C1=O` (single isomer, unassigned) [Example 30], affinity was put at a Ki of 23.2 nM.

As for `NC(=O)c1nc(-c2cccc(C#C[C@]3(O)CCOC3=O)c2)ccc1N` (single isomer, unassigned) [Example 64], the Ki stood at 4.07 nM.

For `NC(=O)c1nc(-c2cccc(C#C[C@@]3(O)CCOC3=O)c2)ccc1N` (single isomer, unassigned) [Example 65], the affinity, expressed as Ki, was 38 nM.

As for `CN1CCC(O)(C#Cc2cccc(-c3nc(C(N)=O)ncc3NCC(F)(F)F)c2)C1=O` (stereo in doubt) [Example 147, 4-[3-[2-[(3R)-3-hydroxy-1-methyl-2-oxo-pyrrolidin-3-yl]ethynyl]phenyl]-5-(2,2,2-trifluoroethylamino) pyrimidine-2-carboxamide], the inhibition constant (Ki) came to 879 nM.

Molecule `CC(=O)N1CCN(c2cc(C(N)=O)nc(-c3cccc(C#C[C@]4(O)CCN(C)C4=O)c3)n2)CC1` [Example 7, 6-(4-acetylpiperazin-1-yl)-2-[3-[2-[(3R)-3-hydroxy-1-methyl-2-oxo-pyrrolidin-3-yl]ethynyl]phenyl]pyrimidine-4-carboxamide] showed an inhibition constant Ki of 1.25 nM.

For `CN1CC[C@@](O)(C#Cc2cccc(-c3nc(C(N)=O)cc(N4CC[C@@H](O)C4)n3)c2)C1=O` [Example 24, 2-[3-[2-[(3R)-3-hydroxy-1-methyl-2-oxo-pyrrolidin-3-yl]ethynyl]phenyl]-6-[(3R)-3-hydroxypyrrolidin-1-yl] pyrimidine-4-carboxamide], the affinity corresponds to a Ki of 1.05 nM.

On to `CC(C)C[C@H]1CCCN1c1cc(C(N)=O)nc(-c2cccc(C#C[C@]3(O)CCN(C)C3=O)c2)n1` [Example 25, 2-[3-[2-[(3R)-3-hydroxy-1-methyl-2-oxo-pyrrolidin-3-yl]ethynyl]phenyl]-6-[(2R)-2-isobutylpyrrolidin-1-yl] pyrimidine-4-carboxamide], for which the affinity corresponds to a Ki of 5.57 nM.

`Cc1cnc([C@@](C)(O)C#Cc2cccc(-c3nc(C(N)=O)c4ccn(C)c4n3)c2)o1` [Example 54, 2-[3-[(3S)-3-hydroxy-3-(5-methyloxazol-2-yl)but-1-ynyl]phenyl]-7-methyl-pyrrolo[2,3-d] pyrimidine-4-carboxamide] yielded a Ki of 510 nM.

As for `CN1CC[C@@](O)(C#Cc2cccc(-c3nc(C(N)=O)cc4nccn34)c2)C1=O` [Example 61, 5-[3-[2-[(3R)-3-hydroxy-1-methyl-2-oxo-pyrrolidin-3-yl]ethynyl]phenyl]imidazo [1,2-c]pyrimidine-7-carboxamide], the affinity corresponds to a Ki of 4.33 nM.

In the case of `CN1CC[C@@](O)(C#Cc2cccc(-c3nccc(C(N)=O)n3)c2F)C1=O` [Example 91, 2-[2-fluoro-3-[2-[(3R)-3-hydroxy-1-methyl-2-oxo-pyrrolidin-3-yl]ethynyl]phenyl]pyrimidine-4-carboxamide], the affinity, expressed as Ki, was 14.4 nM.

For the molecule `CN1CC[C@@](O)(C#Cc2cccc(-c3ncc(N4CCOCC4)c(C(N)=O)n3)c2)C1=O` [Example 103, 2-[3-[2-[(3R)-3-hydroxy-1-methyl-2-oxo-pyrrolidin-3-yl]ethynyl]phenyl]-5-morpholino-pyrimidine-4-carboxamide], the affinity corresponds to a Ki of 22.8 nM.

Take `CC(C)n1ncc2c(-c3cccc(C#C[C@]4(O)CCN(C)C4=O)c3)nc(C(N)=O)cc21` [Example 115, 4-[3-[2-[(3R)-3-hydroxy-1-methyl-2-oxo-pyrrolidin-3-yl]ethynyl]phenyl]-1-isopropyl-pyrazolo[4,3-c]pyridine-6-carboxamide]: the Ki came to 1.77 nM.

In the case of `Cc1nnc([C@](C)(O)C#Cc2cccc(-c3nccc(C(N)=O)n3)c2)o1` [Example 138, 2-[3-[(3R)-3-hydroxy-3-(5-methyl-1,3,4-oxadiazol-2-yl)but-1-ynyl]phenyl]pyrimidine-4-carboxamide], the Ki is 60.2 nM.

`Cc1ccc(C(N)=O)nc1-c1cccc(C#C[C@]2(O)CCN(C)C2=O)c1` [Example 140, 6-[3-[2-[(3R)-3-hydroxy-1-methyl-2-oxo-pyrrolidin-3-yl]ethynyl]phenyl]-5-methyl-pyridine-2-carboxamide] displayed a Ki of 23.8 nM.

`CN1CC[C@@](O)(C#Cc2cc(-c3nccc(C(N)=O)n3)c3cn[nH]c3c2)C1=O` [Example 156, 2-[6-[2-[(3R)-3-hydroxy-1-methyl-2-oxo-pyrrolidin-3-yl]ethynyl]-1H-indazol-4-yl] pyrimidine-4-carboxamide]: the inhibitory constant (Ki) turned out to be 11.3 nM.

In turn, `CN1CC[C@@](O)(C#Cc2cccc(-c3ccc(F)c(C(N)=O)n3)c2)C1=O` [Example 157, 3-fluoro-6-[3-[2-[(3R)-3-hydroxy-l-methyl-2-oxo-pyrrolidin-3-yl]ethynyl]phenyl] pyridine-2-carboxamide] returned a Ki of 1.86 nM.

`CN1CC[C@@](O)(C#Cc2cccc(-c3cc(NC4COC4)cc(C(N)=O)n3)c2)C1=O` [Example 163, 6-[3-[2-[(3R)-3-hydroxy-1-methyl-2-oxo-pyrrolidin-3-yl]ethynyl]phenyl]-4-(oxetan-3-ylamino)pyridine-2-carboxamide] displayed a Ki of 0.21 nM.

On to `CC(=O)Nc1cc(C(N)=O)nc(-c2cccc(C#C[C@]3(O)CCN(C)C3=O)c2)c1` [Example 175, 4-acetamido-6-[3-[2-[(3R)-3-hydroxy-1-methyl-2-oxo-pyrrolidin-3-yl]ethynyl]phenyl] pyridine-2-carboxamide], for which the Ki was found to be 0.08 nM.

In turn, `CN1CC[C@@](O)(C#Cc2cccc(-c3cc(O)cc(C(N)=O)n3)c2)C1=O` [Example 176, 4-hydroxy-6-[3-[2-[(3R)-3-hydroxy-1-methyl-2-oxo-pyrrolidin-3-yl]ethynyl]phenyl] pyridine-2-carboxamide] showed an inhibitory constant (Ki) of 0.96 nM.

As to `CN1CC[C@@](O)(C#Cc2cc(-c3nc(C(N)=O)cc4c3cnn4C)ccc2F)C1=O` [Example 177, 4-[4-fluoro-3-[2-[(3R)-3-hydroxy-l-methyl-2-oxo-pyrrolidin-3-yl]ethynyl]phenyl]-1-methyl-pyrazolo [4,3-c]pyridine-6-carboxamide], the Ki was < 0.05 nM.

`Cc1c(O)cc(-c2cccc(C#C[C@]3(O)CCN(C)C3=O)c2)nc1C(N)=O` [Example 178, 4-hydroxy-6-[3-[2-[(3R)-3-hydroxy-1-methyl-2-oxo-pyrrolidin-3-yl]ethynyl]phenyl]-3-methyl-pyridine-2-carboxamide] yielded a Ki of 2.87 nM.

In the case of `COc1cc(C(N)=O)nc(-c2cc(C#C[C@]3(O)CCN(C)C3=O)ccc2F)c1` [Example 179, 6-[2-fluoro-5-[2-[(3R)-3-hydroxy-l-methyl-2-oxo-pyrrolidin-3-yl]ethynyl]phenyl]-4-methoxy-pyridine-2-carboxamide], the inhibition constant Ki was < 0.05 nM.

As for `COc1cc(C(N)=O)nc(-c2ccc(F)c(C#C[C@]3(O)CCN(C)C3=O)c2)c1` [Example 180, 6-[4-fluoro-3-[2-[(3R)-3-hydroxy-1-methyl-2-oxo-pyrrolidin-3-yl]ethynyl]phenyl]-4-methoxy-pyridine-2-carboxamide], the Ki was < 0.05 nM.

Molecule `COc1cc(-c2cccc(C#C[C@]3(O)CCN(C)C3=O)c2)nc(C(N)=O)c1OC` [Example 181, 6-[3-[2-[(3R)-3-hydroxy-l-methyl-2-oxo-pyrrolidin-3-yl]ethynyl]phenyl]-3,4-dimethoxy-pyridine-2-carboxamide] returned a Ki of 3.67 nM.

Consider `CN1CC[C@@](O)(C#Cc2cccc(-c3cc(-n4ccnc4)cc(C(N)=O)n3)c2)C1=O` [Example 182, 6-[3-[2-[(3R)-3-hydroxy-l-methyl-2-oxo-pyrrolidin-3-yl]ethynyl]phenyl]-4-imidazol-1-yl-pyridine-2-carboxamide], for which the Ki came to 0.17 nM.

Molecule `COCc1cc(-c2cccc(C#C[C@]3(O)CCN(C)C3=O)c2)nc(C(N)=O)n1` [Example 183, 4-[3-[2-[(3R)-3-hydroxy-l-methyl-2-oxo-pyrrolidin-3-yl]ethynyl]phenyl]-6-(methoxymethyl)pyrimidine-2-carboxamide] came in with an inhibitory constant (Ki) of 0.49 nM.

Molecule `CN1CC[C@@](O)(C#Cc2cc3c(c(-c4nccc(C(N)=O)n4)c2)CCN3)C1=O` [Example 184, 2-[6-[2-[(3R)-3-hydroxy-1-methyl-2-oxo-pyrrolidin-3-yl]ethynyl]indolin-4-yl] pyrimidine-4-carboxamide] yielded an inhibitory constant (Ki) of 0.14 nM.

`COc1cc(C(N)=O)nc(-c2cccc(C#C[C@]3(O)CCN(C)C3=O)c2)c1F` [Example 185, 5-fluoro-6-[3-[2-[(3R)-3-hydroxy-1-methyl-2-oxo-pyrrolidin-3-yl]ethynyl]phenyl]-4-methoxy-pyridine-2-carboxamide] displayed a Ki of 0.5 nM.

As to `CN1CC[C@@](O)(C#Cc2cccc(-c3nc(C(N)=O)cc4c3OCC4)c2)C1=O` [Example 186, 7-[3-[2-[(3R)-3-hydroxy-1-methyl-2-oxo-pyrrolidin-3-yl]ethynyl]phenyl]-2,3-dihydrofuro[1,3-c]pyridine-5-carboxamide], the inhibition constant (Ki) came out at 0.14 nM.

`CN1CC[C@@](O)(C#Cc2cccc(-c3ccc(C(F)F)c(C(N)=O)n3)c2)C1=O` [Example 187, 3-(difluoromethyl)-6-[3-[2-[(3R)-3-hydroxy-1-methyl-2-oxo-pyrrolidin-3-yl]ethynyl]phenyl]pyridine-2-carboxamide] registered a Ki of 0.06 nM.

Take `CN1CC[C@@](O)(C#Cc2cccc(-c3nc(C(N)=O)ccc3C(F)F)c2)C1=O` [Example 188, 5-(difluoromethyl)-6-[3[2-[(3R)-3-hydroxy-1-methyl-2-oxo-pyrrolidin-3-yl]ethynyl]phenyl]pyridine-2-carboxamide]: the Ki came to 9.53 nM.

The molecule `CN1CC[C@@](O)(C#Cc2cccc(-c3cc(OCC(F)(F)F)cc(C(N)=O)n3)c2)C1=O` [Example 189, 6-[3-[2-[(3R)-3-hydroxy-1-methyl-2-oxo-pyrrolidin-3-yl]ethynyl]phenyl]-4(2,2,2-trifluoroethoxy)pyridine-2-carboxamide] returned an inhibitory constant (Ki) of 0.15 nM.

Turning to `CN1CC[C@@](O)(C#Cc2cccc(-c3cc(-n4cc(F)cn4)cc(C(N)=O)n3)c2)C1=O` [Example 190, 4-(4-fluoropyrazol-1-yl)-6-[3-[2-[(3R)-3-hydroxy-1-methyl-2-oxo-pyrrolidin-3-yl]ethynyl]phenyl]pyridine-2-carboxamide], the inhibitory constant (Ki) was < 0.05 nM.
